Reference: publication PMC5766510, “Development of a PET radioligand for potassium channels to image CNS demyelination” (Scientific Reports, 2018)
Read-outs that look alike come from different tables or passages of the source.

Assays:
[1] = test system: voltage-gated K^+ channels; assay: PET/CT imaging in healthy rats; type: in vivo, rat
Description: In order to evaluate the potential use of [^18F]3-F-4-AP as a PET tracer for the brain, we conducted PET combined with computed tomography (PET/CT) imaging in healthy rats after tail vein injection of [^18F]3-F-4-AP (0.15–0.30 μCi/g). We chose rats instead of mice because their larger brain size allows better spatial resolution. […] In order to overcome the limited intrinsic resolution of PET, we conducted ex vivo autoradiography in rats injected with [^18F]3-F-4-AP (1–2 μCi/g).
PET/CT imaging studies were carried out on a Trifoil Triumph™ Trimodality Preclinical microPET/SPECT/CT Imaging System (Norridge, CA) equipped with a X-PET detector constructed from BGO crystals. Rats were anesthetized with a mixture of 2% isoflurane and […] and kept under anesthesia throughout the whole procedure. A CT image was acquired first (at 40 kV, 140-uA beam current, and 256 projections, approx. 5 min). After the CT, 50–150 µCi of [^18F]3-F-4-AP was infused as a bolus through a tail vein injection port and a 25, 30 or 90 min list-mode PET scan performed. PET data are acquired using a sensitivity 5.9%, 250- to 750-keV energy window and 12-ns timing window in list-mode format with spatial resolution of 1.6–2.0 mm (FWHM), which can be binned into 3-dimensional (3D) sinograms corresponding to total and true events, respectively. Images were reconstructed using Fourier rebinning followed by a 2-dimensional ordered-subsets expectation maximization algorithm (OSEM) (4 iterations with 15 subsets). Reconstructed images were processed by using VivoQuant (inviCRO, LLC, Boston) version 2.1. Time activity curves were generated by processing the PET data in 5 min frames.

[2] = Organ distribution of PET tracer in mice by gamma counting; type: in vivo; conditions: mouse, 30 min post intravenous injection, n = 4
Protocol: Once we had generated the ^18F-labeled drug, we evaluated the uptake of the tracer in mouse blood, brain, liver and kidneys 30 min and 2 h post intravenous administration using automatic gamma counting. […] The uptake in the brain 30 min post injection was higher than blood (standard uptake value (SUV) = 4.71 ± 0.81 vs. 3.27 ± 0.35, n = 4, P = 0.024) providing a suitable time window to conduct PET imaging studies.
50–60 uCi of the [^18F]3-F-4-AP tracer was injected via tail vein to eight 8-week-old female B6 albino mice. At the specified times, the mice were euthanized by anesthetic overdose. Following euthanasia blood was collected by cardiac puncture and transferred to EDTA coated tubes. Other organs (brain, liver and kidneys) were collected by dissection and transferred to glass tubes. Radioactivity was measured using an automatic gamma counter (^18F protocol) and corrected for organ weight and injected dose. Using the original tracer solution, 8 standard solutions ranging from 20 μCi to 10^−5 μCi were prepared, analyzed by gamma counting and used as a calibration curve to correlate peak area of the samples to concentration. SUV was calculated as SUV = (dose organ/organ weight)/(dose injected/body weight) with dose corrected for decay.

[3] = test system: voltage-gated K^+ channels; assay: PET imaging in healthy Rhesus macaques; type: in vivo, Rhesus monkeys (macaca mulatta)
Protocol: Whole body PET/CT imaging was carried out on a Siemens mCT PET/CT. Monkeys were sedated with ketamine and intubated. Following intubation monkeys were placed in prone position on the scanner bed face forward with their head immobilized in a stereotaxic frame. The animals were then anesthetized with 1% isoflurane and kept under anesthesia throughout the whole procedure. A CT image was acquired first (approx. 5 min). After the CT, 5 mCi in 8 mL of saline of [^18F]3-F-4-AP was infused as a bolus through the cubital vein. Scans were obtained in list mode and reconstructed with a 3D ordinary Poisson OSEM algorithm as 30 frames of data (2 × 15 secs, 4 × 30 secs, 8 × 60 secs, 8 × 120 secs, 8 × 240 secs). All activities were decay-corrected to the time of injection of the radiopharmaceutical. Reconstructed images were processed using VivoQuant. ROIs for the major organs were hand drawn based on the CT and used to calculate time-activity curves.
Focused high-resolution brain imaging in Rhesus macaques: brain PET imaging was carried out on a Siemens HRRT PET scanner. Monkeys were sedated with ketamine and intubated. Following intubation monkeys were placed in prone position on the scanner bed face forward with their head immobilized in a stereotaxic frame. The animals were then anesthetized with 1% isoflurane and kept under anesthesia throughout the whole procedure. Monkeys received 5 mCi of [^18F]3-F-4-AP as a bolus through the cubital vein. Scans were obtained in list mode and reconstructed with a 3D ordinary Poisson OSEM algorithm as […] frames of data (8 × 15 secs, 8 × 30 secs, 16 × 60 secs, 16 × 120 secs, 16 × 240 secs). All activities were decay-corrected to the time of injection of the radiopharmaceutical. Reconstructed images were processed using VivoQuant. The Rhesus brain atlas from VivoQuant was fitted to the data and used to calculate time-activity curves for 43 different brain regions.

[4] = test system: voltage-gated K^+ channels; assay: Detection of demyelination by PET in LPC-injected rats; type: in vivo, rat; conditions: PET 0-25 min
Protocol: After conducting PET imaging with [^18F]3-F-4-AP in healthy rats, we sought to evaluate the capability of this tracer to detect demyelination using the LPC-injection model. The main advantages of this model are that the localization of the lesion is known, that the time course of demyelination is well established, that there is no inflammation or disruption of the BBB, and that the signal in the lesioned area can be directly compared to the contralateral control area[69]. […] Rats were injected with 3 μL of saline (control group) or 1% LPC in saline (demyelination group) on the right side of the cerebellum, targeting the cerebellar white matter. Seven days post injection, which corresponds to the peak of demyelination, the animals were scanned using PET (0–25 min). Several hours after the PET scan, the animals were reinjected with [^18F]3F4AP and their brains studied by ex vivo autoradiography as previously described. Finally, following autoradiography the same tissue sections were stained with LFB. To analyze the data, we placed a spherical voxel of ~1.5 mm radius centered at the injection coordinates and compared the signal in this region with that of an equal size region at the contralateral hemisphere (Fig. 6A). […] Furthermore, there was excellent correlation between PET, ex vivo autoradiography and histological staining for myelin (Fig. 6C). For one animal, we performed serial autoradiography and staining throughout the whole cerebellum (Sup. Fig. 2). As shown in this figure, it is possible to clearly delineate where the lesion starts and finishes based on the autoradiographic signal.
A power analysis (power 0.8, α = 0.05) based on the autoradiography results was used to determine the number of rats needed to detect a statistically significant change in signal. Randomly selected rats were injected with lysolecithin or saline intracranially as described above. 0–25 min dynamic PET scan was performed 6–8 days post intracranial injection (peak of demyelination) after administration of 0.3–0.5 μCi/g. Within 24 h of the PET scan, the rats received a second dose of tracer (1–2 uCi/g), the animals were sacrificed 25 min post injection and their brains processed for autoradiography as described above. Image analyst was not blind to the treatment group. Post autoradiography, LFB staining was performed to assess demyelination. Animals showing physical damage to the brain due to the injection were excluded from the study. Brain ROI analysis was performed using reference atlas with VivoQuant version 2.1 (inviCRO, LLC, Boston).

[5] = target: non-inactivating Shaker channel from D. melanogaster (Drosophila melanogaster, UniProt P08510, DEL6-46); assay: cell-based; conditions: relative K^+ current at +20 mV, Hill equation fit; read-out: Half-maximal inhibitory concentration (IC50)
Sequence of non-inactivating Shaker channel from D. melanogaster (P08510 other isoform, or with tags, fused parts or gaps DEL6-46): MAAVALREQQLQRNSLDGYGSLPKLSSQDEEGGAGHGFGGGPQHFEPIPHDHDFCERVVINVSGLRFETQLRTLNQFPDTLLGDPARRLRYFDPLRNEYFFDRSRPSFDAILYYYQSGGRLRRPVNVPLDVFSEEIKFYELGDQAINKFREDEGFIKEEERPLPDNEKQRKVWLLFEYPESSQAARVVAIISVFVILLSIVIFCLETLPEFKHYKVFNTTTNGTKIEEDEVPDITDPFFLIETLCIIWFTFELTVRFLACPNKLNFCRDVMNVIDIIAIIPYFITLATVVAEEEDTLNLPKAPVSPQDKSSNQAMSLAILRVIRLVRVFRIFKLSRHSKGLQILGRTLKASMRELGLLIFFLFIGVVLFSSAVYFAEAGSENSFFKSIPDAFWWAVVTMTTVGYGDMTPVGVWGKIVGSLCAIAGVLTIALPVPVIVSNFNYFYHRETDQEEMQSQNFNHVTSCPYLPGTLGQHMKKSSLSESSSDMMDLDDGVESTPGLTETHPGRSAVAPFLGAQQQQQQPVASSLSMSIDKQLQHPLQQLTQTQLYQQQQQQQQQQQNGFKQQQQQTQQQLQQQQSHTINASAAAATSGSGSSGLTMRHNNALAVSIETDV
Protocol: See SI for additional details.
(§1) CI95 = [Upper Limit. Lower Limit]; where Upper Limit = 10^(logEC50+s.d.) and Lower Limit = 10^(logEC50−s.d.). […]
exchanging the external solution (top and guard chambers) several times. After application, cells were voltage-clamped at least 5 min at 0mV, then voltage-clamped at -80mV for 1-2 min.
K+ currents were generated by applying series of 50 ms pulses from -70 mV to +40 mV in increments of 10 mV. The effect of the drug was assessed by measuring the relative intensity of the K+ current before and after applying varying drug concentration at a constant voltage (typically +20 mV) and at the end of the test-pulse. Data acquisition and analysis of the traces was performed using Gpatch software (Department of Anesthesiology, University of California, […]
Los Angeles). […]

[6] = Stability in mouse plasma; conditions: after 1 h
[7] = test system: K^+ channels in explanted mouse optic nerves; assay: Compound action potential (CAP) of dissected mouse optic nerves; conditions: for EC50: increase of maximum CAP amplitude, dysmyelinated (Shiverer) optic nerves, 22.2 °C, read-out: Half-maximal effective concentration (EC50)
Protocol: Therefore, we tested the effects of these compounds on the compound action potential (CAP) of dysmyelinated optic nerves from control and Shiverer mice (Fig. 2E).
Optic nerves were dissected from 12–16 week old Shiverer (Mbp^shi/shi) and control mice (Mbp^+/shi and Mbp^+/+). Compound action potentials (CAP) were recorded using suction electrodes as described by Stys et al.[91]. See SI for additional details.
as §1
Dissection of optic nerves: Optic nerves were dissected from 12-16 week old Shiverer (Mbpshi/shi) and control mice (Mbp+/shi and Mbp+/+). Mice were euthanized by CO2 overdose and the optic nerves were quickly dissected between the eyeball and the optic chiasm. The nerves […]
Optic nerve electrophysiology: Compound action potentials (CAP) from dysmyelinated nerves (Shiverer mice, Mbpshi/shi) and myelinated nerves (litermate controls, Mbp+/shi and Mbp+/+) were […]
between two suction electrodes (stimulus and recording electrodes) forming a tight seal on each end. Two additional electrodes were placed in the bath for reference. A supramaximal pulse (250 mV, 20 μs) was applied at the stimulating end of the nerve. The resulting CAP was amplified from the recording electrode using a high impedance low-noise amplifier (EG&G Princeton Applied Research Corporation) sampled at 100 kHz and filtered at 10 kHz. To assess […]
concentrations to the recording chamber after the CAP was allowed to stabilize for 5 min while […]
pulsing repeatedly. After each measurement, the chamber was washed for 5 min (flow 1 […]
mL/min) with oxygenated aCSF. […]
conduction and the temperature was monitored throughout the experiment. CAP recordings were acquired with a SBC6711 board (Innovative Integration) controlled by in-house written software. Analysis of the traces was done using an in-house software. The half-maximal […]
amplitude vs. concentration and fitted to the Hill equation using Origin. […]
Compound action potential of nerve recorded by suction electrode: a theoretical and experimental analysis. […]

[8] = Partition coefficient octanol-water (logD); type: physicochemical
Protocol: The partition coefficient octanol-water at pH 7.4 was measured by adding 0.1 mg of the compound to a 10 mL 50:50 mixture of octanol:PBS. The vial was shaken vigorously followed by 1 min centrifugation at 1,000 g to separate the phases. The drug concentration in each phase of the drug was calculated from the area under the peak on reverse phase HPLC (10 μL sample) using a calibration curve.

in vitro = conditions: mouse
C57Bl/6 J mice = assay: In vivo effects (signs of neuroexcitation) after intraperitoneal injection; conditions: mouse, different doses
Protocol: In this experiment, we injected each drug intraperitoneally at different concentrations into mice and looked for signs of neuroexcitation (Fig. 3B).
10-week-old female C57Bl/6 J mice were given an intraperitoneal injection of the drug under investigation and monitored continuously for 4 h. […] At least 72 h passed between injections to the same mice.

[9] = Parallel artificial membrane permeability assay (PAMPA); conditions: for Papp: PAMPA
[10] = estimated; cited from earlier work
[11] = mouse, 1 h
[12] = LPC-injected rats, 7 days post injection, n = 4
[13] = saline (vehicle only)-injected rats, n = 3

## Nc1ccncc1[18F] [[^18F]3-F-4-AP]
[1]; healthy rats, 0-90 min scan
  time of peak in brain time-activity curve: ≤ 5 min
[1]; healthy rats, 0 to 30 min
  SUV in cerebellum: 2.09 ± 0.44
  SUV in cortex: 3.24 ± 0.70
[1]; healthy rats, 0 to 30 min, n = 3
  mean SUV for the whole brain: 2.91 ± 0.65
[1]; rats, no radioactivity in skull, teeth or bone
  defluorination in vivo: does not undergo defluorination in vivo
[2]
  standard uptake value (SUV) in blood: 3.27 ± 0.35
  standard uptake value (SUV) in brain: 4.71 ± 0.81
[3]; Rhesus macaques
  peak SUV in selected brain regions: 3.2–5.5
  time of peak SUV in selected brain regions: 2 to 5 min
[3]; Rhesus macaques, within the first five minutes
  peak SUV for the whole brain: around 4
[3]; Rhesus macaques, lack of bone uptake
  defluorination in vivo: not defluorinated in vivo
[4]; [12]
  SUV, control side of cerebellum: 2.60 ± 0.21
  SUV, injected side of cerebellum: 3.54 ± 0.53
[4]; [13]
  SUV, control side of cerebellum: 2.67 ± 0.77
  SUV, injected side of cerebellum: 2.59 ± 0.78

## Nc1ccncc1F [3-F-4-AP, 3-fluoro-4-aminopyridine]
[5]
  IC50: 250 µM
[6]
  remaining in plasma: > 90%
[7]
  EC50: 96 µM
[8]; pH 7.4, pH 7.4, n = 3, read-out: logD: experimental partition coefficient octanol:water
  logD: 0.63
In vitro; microsomes
  half-life: 2.4 ± 0.183 h
C57Bl/6 J mice
  signs of neuroexcitation, summary in words relative to 4-AP: active at the same concentration as 4-AP and to act faster
[1]; rats
  effect of high doses of non-radiolabeled drug (self-block): caused the breathing rate to increase dramatically, possibly due to seizures
[3]; Rhesus macaques, 0.1 mg/kg
  effect of cold drug (self-block) on brain signal: no changes in brain signal or time activity curves were detected
[3]; estimated based on the rodent data
  estimated seizure dose in monkeys: 1.5 to 3.0 mg/kg
[9]
  Papp: 15.6 ± 0.6 nm/s
[9]; ratio of Pe
  times more permeable than 4-AP: 6.6 times

## Nc1ccncc1 [4-AP, 4-aminopyridine]
[7]; dysmyelinated nerves
  increases of the CAP amplitude: 2–4 fold
[7]
  EC50: 59.2 µM
[7]; normally myelinated nerves
  increases in amplitude and duration of the action potential: < 5%
[8]; pH 7.4
  logD: experimental partition coefficient octanol:water: 0.21
[8]; pH 7.4, logD: experimental partition coefficient octanol:water
  logD: 0.23
In vitro; liver microsomes
  half-life: 0.883 ± 0.167 h
[10]
  concentration in the cerebrospinal fluid of patients taking the drug: around 50 nM
[11]
  remaining in plasma: > 90%
[9]
  Papp: 2.36 ± 0.03 nm/s
